System: RBL-2H3 cells
Test: IgE-induced Beta-hexosaminidase secretion in RBL-2H3 cells
Format: cell-based
Settings: Rattus norvegicus; RBL-2H3 cells sensitized with SPE-7, stimulated with DNP-BSA
Experimental: For the determination of IgE-induced Beta-hexosaminidase secretion, RBL-2H3 cells (SIBS) are seeded in 96 well plates at 4×10^4 cells per well and incubated in MEM media with 15% FBS and Glutamine ([…]) for 4 hours and sensitized with 0.5 ug/ml of SPE-7 overnight. Cells are washed 3 times with Tyrode's buffer and incubated in the presence or absence of various concentrations of the testing compound for 20 min at 37° C., 5% CO2. Cells are stimulated by adding 10 μL of DNP-BSA solution (150 ng/mL) to each well and incubating for 45 minutes at 37° C., 5% CO2. Then, 45 μL of the supernatant is taken and incubated with 100 μL of 1 mM 4-Nitrophenyl N-acetyl-β-D-glucosaminide (Sigma, Cat. No. N9376), which is diluted in 0.05 M citrate buffer (pH 4.5), for 1.5 hr at 37° C. The reactions are quenched by adding 185 μL of 0.05 M sodium carbonate buffer (pH 10.0). Plates are read at 405 nm on Multiskan (MK 3).

SMILES | IC50 [nM]
O=C(C(F)F)N1CCO[C@H](COc2nc(-c3ccc(N4CCNCC4)cc3)cc3nccnc23)C1 [Compound 6, (S)-2,2-difluoro-1-(2-((7-(4-(piperazin-1-yl)phenyl)pyrido[4,3-b]pyrazin-5-yloxy)methyl)morpholino)ethanone] | 100 to 1000
CS(=O)(=O)N1CCO[C@H](COc2nc(-c3ccc(N4CCOCC4)c(F)c3)cc3nccnc23)C1 [Compound 7] | 100 to 1000
CN1CCC(c2ccc(-c3cc4nccnc4c(OC[C@@H]4CN(S(C)(=O)=O)CCO4)n3)cc2)CC1 [Compound 8] | 100 to 1000
CS(=O)(=O)N1CCO[C@H](COc2nc(-c3ccc(C4CCOCC4)cc3)cc3nccnc23)C1 [Compound 11] | 1 to 100
CS(=O)(=O)N1CCO[C@H](COc2nc(-c3ccc(N4CCOCC4)cc3)cc3nccnc23)C1 [Compound 12] | 1 to 100
CN1CCN(c2ccc(-c3cc4nccnc4c(OC[C@@H]4CN(S(C)(=O)=O)CCO4)n3)cc2)CC1 [Compound 13] | 1 to 100
CS(=O)(=O)N1CCO[C@H](COc2nc(-c3ccc(N4CCNCC4)cc3)cc3nccnc23)C1 [Compound 14] | 100 to 1000
CN1CCN(c2ccc(-c3cc4nccnc4c(OC[C@@H]4CN(C(=O)C(F)F)CCO4)n3)cc2)CC1 [Compound 16] | 1 to 100
CCN1CCN(c2ccc(-c3cc4nccnc4c(OC[C@@H]4CN(C(=O)C(F)F)CCO4)n3)cc2)CC1 [Compound 17] | 1 to 100
CC1CN(c2ccc(-c3cc4nccnc4c(OC[C@@H]4CN(S(C)(=O)=O)CCO4)n3)cc2)CCO1 (stereo partly drawn) [Compound 18] | 1 to 100
C[C@@H]1CN(c2ccc(-c3cc4nccnc4c(OC[C@@H]4CN(S(C)(=O)=O)CCO4)n3)cc2)C[C@H](C)O1 [Compound 19] | 100 to 1000
CS(=O)(=O)N1CCO[C@H](COc2nc(-c3ccc(N4CCC(F)(F)CC4)cc3)cc3nccnc23)C1 [Compound 20] | 1 to 100
CS(=O)(=O)N1CCO[C@H](COc2nc(-c3ccc(N4CCCCC4)cc3)cc3nccnc23)C1 [Compound 21] | 1 to 100
CC(C)(O)C1CCN(c2ccc(-c3cc4nccnc4c(OC[C@@H]4CN(S(C)(=O)=O)CCO4)n3)cc2)CC1 [Compound 22] | 1 to 100
CCS(=O)(=O)N1CCC(c2ccc(-c3cc4nccnc4c(OC[C@@H]4CN(C(C)=O)CCO4)n3)cc2)CC1 [Compound 23] | 100 to 1000
CC(=O)N1CCO[C@H](COc2nc(-c3ccc(N4CCOCC4)cc3)cc3nccnc23)C1 [Compound 24] | 100 to 1000
CCS(=O)(=O)N1CCN(c2ccc(-c3cc4nccnc4c(OC[C@@H]4CN(C(C)=O)CCO4)n3)cc2)CC1 [Compound 25] | 100 to 1000
CS(=O)(=O)N1CCO[C@H](COc2nc(-c3ccc(N4CCN(CCO)CC4)cc3)cc3nccnc23)C1 [Compound 27] | 100 to 1000
NS(=O)(=O)N1CCO[C@H](COc2nc(-c3ccc(N4CCCCC4)cc3)cc3nccnc23)C1 [Compound 28] | 100 to 1000
NS(=O)(=O)N1CCO[C@H](COc2nc(-c3ccc(N4CCC(F)(F)CC4)cc3)cc3nccnc23)C1 [Compound 29] | 100 to 1000
NS(=O)(=O)N1CCO[C@H](COc2nc(-c3ccc(N4CCCC4)cc3)cc3nccnc23)C1 [Compound 30] | 100 to 1000

SMILES | IC50 [nM]
COC1CCN(c2ccc(-c3cc4nccnc4c(OC[C@@H]4CN(S(C)(=O)=O)CCO4)n3)cc2)CC1 [Compound 31] | 1 to 100
CNc1ccc(-c2cc3nccnc3c(OC[C@@H]3CN(S(C)(=O)=O)CCO3)n2)cc1 [Compound 36] | 1 to 100
COc1ccc(-c2cc3nccnc3c(OC[C@@H]3CN(S(C)(=O)=O)CCO3)n2)cc1 [Compound 38] | 100 to 1000
Cn1ccc2cc(-c3cc4nccnc4c(OC[C@@H]4CN(S(C)(=O)=O)CCO4)n3)ccc21 [Compound 39] | 1 to 100
COC1CCN(c2ccc(-c3cc4nccnc4c(OC[C@@H]4CN(C(C)=O)CCO4)n3)cc2)CC1 [Compound 48] | 100 to 1000
CC(=O)N1CCO[C@H](COc2nc(-c3ccc(N4CCN(CCO)CC4)cc3)cc3nccnc23)C1 [Compound 49] | 100 to 1000
CNc1ccc(-c2cc3nccnc3c(OC[C@@H]3CN(C(=O)[C@H]4CCOC4)CCO3)n2)cc1 [Compound 50] | 100 to 1000
CNc1ccc(-c2cc3nccnc3c(OC[C@@H]3CN(C(=O)[C@H]4CCCO4)CCO3)n2)cc1 [Compound 51] | 100 to 1000
CNc1ccc(-c2cc3nccnc3c(OC[C@@H]3CN(S(C)(=O)=O)CCO3)n2)cc1F [Compound 52] | 1 to 100
CC(=O)N1CCC(c2ccc(-c3cc4nccnc4c(OC[C@@H]4CN(C(C)=O)CCO4)n3)cc2)CC1 [Compound 54] | 100 to 1000
CNS(=O)(=O)N1CCO[C@H](COc2nc(-c3ccc(N4CCOCC4)cc3)cc3nccnc23)C1 [Compound 55] | 100 to 1000
CS(=O)(=O)N1CCO[C@H](COc2nc(-c3ccc(C4CCN(CCO)CC4)cc3)cc3nccnc23)C1 [Compound 58, (S)-2-(4-(4-(5-((4-(methylsulfonyl)morpholin-2-yl)methoxy)pyrido[3,4-b]pyrazin-7-yl)phenyl)piperidin-1-yl)ethanol] | 100 to 1000
COCCN1CCC(c2ccc(-c3cc4nccnc4c(OC[C@@H]4CN(S(C)(=O)=O)CCO4)n3)cc2)CC1 [Compound 59] | 100 to 1000
O=C(C(F)F)N1CCO[C@H](COc2nc(-c3ccc(N4CCOCC4)cc3)cc3nccnc23)C1 [Compound 61] | 1 to 100
NS(=O)(=O)N1CCO[C@H](COc2nc(-c3ccc(N4CCOCC4)cc3)cc3nccnc23)C1 [Compound 62] | 1 to 100
NC(=O)N1CCO[C@H](COc2nc(-c3ccc(N4CCOCC4)cc3)cc3nccnc23)C1 [Compound 63] | 100 to 1000
CN1CCN(c2ccc(-c3cc4nccnc4c(OC[C@@H]4CN(S(N)(=O)=O)CCO4)n3)cc2)CC1 [Compound 64] | 100 to 1000
CN(C)CCS(=O)(=O)N1CCO[C@H](COc2nc(-c3ccc(N4CCOCC4)cc3)cc3nccnc23)C1 [Compound 65] | 100 to 1000
COCCS(=O)(=O)N1CCO[C@H](COc2nc(-c3ccc(N4CCOCC4)cc3)cc3nccnc23)C1 [Compound 66] | 100 to 1000
CC(C)C(=O)N1CCO[C@H](COc2nc(-c3ccc(N(C)C)cc3)cc3nccnc23)C1 [Compound 68] | 100 to 1000
CN(C)c1ccc(-c2cc3nccnc3c(OC[C@@H]3CN(C(=O)C4CC(F)(F)C4)CCO3)n2)cc1 [Compound 71] | 100 to 1000

SMILES | IC50 [nM]
CN(C)c1ccc(-c2cc3nccnc3c(OC[C@@H]3CN(C(=O)[C@@H]4CCOC4)CCO3)n2)cc1 [Compound 72] | 100 to 1000
CN(C)c1ccc(-c2cc3nccnc3c(OC[C@@H]3CN(C(=O)C4CCOCC4)CCO3)n2)cc1 [Compound 73] | 100 to 1000
CN(C)c1ccc(-c2cc3nccnc3c(OC[C@@H]3CN(C(=O)[C@H]4CC[C@H](O)CC4)CCO3)n2)cc1 [Compound 74] | 100 to 1000
CN(C)c1ccc(-c2cc3nccnc3c(OC[C@@H]3CN(C(=O)CC#N)CCO3)n2)cc1 [Compound 76] | 1 to 100
CN(C)c1ccc(-c2cc3nccnc3c(OC[C@@H]3CN(C(=O)CCC#N)CCO3)n2)cc1 [Compound 77] | 100 to 1000
CN(C)c1ccc(-c2cc3nccnc3c(OC[C@@H]3CN(C(=O)c4cccnc4)CCO3)n2)cc1 [Compound 78] | 1 to 100
O=S(=O)(C1CC1)N1CCO[C@H](COc2nc(-c3ccc(N4CCOCC4)cc3)cc3nccnc23)C1 [Compound 83] | 1 to 100
CN(C)c1ccc(-c2cc3nccnc3c(OC[C@@H]3CN(C(=O)Cc4c[nH]cn4)CCO3)n2)cc1 [Compound 84] | 100 to 1000
CN(C)c1ccc(-c2cc3nccnc3c(OC[C@@H]3CN(C(=O)c4ncc[nH]4)CCO3)n2)cc1 [Compound 86] | 100 to 1000
CN(C)c1ccc(-c2cc3nccnc3c(OC[C@@H]3CN(C(=O)c4cnn(C)c4)CCO3)n2)cc1 [Compound 87] | 100 to 1000
CCS(=O)(=O)N1CCO[C@H](COc2nc(-c3ccc(N(C)C)cc3)cc3nccnc23)C1 [Compound 88] | 1 to 100
CN(C)c1ccc(-c2cc3nccnc3c(OC[C@@H]3CN(S(=O)(=O)c4cccnc4)CCO3)n2)cc1 [Compound 92] | 1 to 100
CN(C)c1ccc(-c2cc3nccnc3c(OC[C@@H]3CN(C(=O)C4CCCC4)CCO3)n2)cc1 [Compound 98] | 100 to 1000
CNC(=O)CS(=O)(=O)N1CCO[C@H](COc2nc(-c3ccc(N(C)C)cc3)cc3nccnc23)C1 [Compound 99] | 100 to 1000
Cc1nccn1CCS(=O)(=O)N1CCO[C@H](COc2nc(-c3ccc(N(C)C)cc3)cc3nccnc23)C1 [Compound 101, (S)—N,N-dimethyl-4-(5-((4-(2-(2-methyl-1H-imidazol-1-yl)ethylsulfonyl)morpholin-2-yl)methoxy)pyrido[4,3-b]pyrazin-7-yl)aniline] | 100 to 1000
CN(C)c1ccc(-c2cc3nccnc3c(OC[C@@H]3CN(S(=O)(=O)CCN4CC[C@@H](O)C4)CCO3)n2)cc1 [Compound 102] | 100 to 1000
CN(C)c1ccc(-c2cc3nccnc3c(OC[C@@H]3CN(S(=O)(=O)CCN4CC[C@H](O)C4)CCO3)n2)cc1 [Compound 103] | 100 to 1000
CN(CC#N)CCS(=O)(=O)N1CCO[C@H](COc2nc(-c3ccc(N(C)C)cc3)cc3nccnc23)C1 [Compound 104] | 100 to 1000
Cn1ncc2cc(-c3cc4nccnc4c(OC[C@@H]4CN(S(C)(=O)=O)CCO4)n3)ccc21 [Compound 105] | 1 to 100
CS(=O)(=O)N1CCO[C@H](COc2nc(-c3ccc4c(c3)OCO4)cc3nccnc23)C1 [Compound 110] | 100 to 1000
CS(=O)(=O)N1CCO[C@H](COc2nc(-c3ccc4ncccc4c3)cc3nccnc23)C1 [Compound 111] | 100 to 1000
